Experimental data published in PubChem BioAssay AID2060605 (Molecular Pharmacology Branch, DTP, NCI, 2025).
pIC50: −log10 of the molar value.

Test system: 947758-054-R-J2-PDC spheroid growth, percent test/control
Experiment: Anticancer human tumor 947758-054-R-J2-PDC patient-derived colon adenocarcinoma cell line growth inhibition [CLK]
Conditions: spheroids with HUVEC and MSC; for pIC50: curve of first compound; for viability, T/C: stronger effect = lower value
Text: A high-throughput screen of multi-cell type tumor spheroids was designed to identify active combinations of […] and targeted small molecules. Complex spheroids include a stromal component modeled by human endothelial cells (HUVEC) and fibroblasts modeled by human mesenchymal stem cells (MSCs). The concentration ranges selected for each drug and investigational agent were based upon clinically achievable concentrations if the clinical Cmax of the agent was known.
Compounds. The drugs and investigational agents: cirtuvivint (SM08502; NSC835563), CC-671 (NSC850746), vemurafenib (NSC761431), tapotoclax (NSC804041), sotorasib (NSC818433), adagrasib (NSC831453), MRTX-1133 (NSC836407), BAY2416964 (NSC825713), copanlisib (NSC816437), inavolisib (NSC800729), abemaciclib (NSC768073), osimertinib (NSC779217), entinostat (NSC756642), eltanexor (KPT-8602, NSC794443), venetoclax (NSC766270), ceralasertib (NSC777638), bortezomib (NSC756655), olaparib (NSC753686), talazoparib (NSC767125), alisertib (NSC759677), peposertib (NSC802822), gemcitabine (NSC613327), 5-fluorouracil (NSC19893), SN-38 (NSC673596), oxaliplatin (NSC266046), paclitaxel (NSC125973), and doxorubicin (NSC123127), were obtained from the National Cancer Institute (NCI) Developmental Therapeutics Program Chemical Repository. The FDA-approved anticancer drug set is available from the Developmental Therapeutics Program at https://dtp.cancer.gov/organization/dscb/obtaining/available plates.htm. […] The stock solutions were prepared in dimethyl sulfoxide (DMSO, Sigma-Aldrich, St. Louis, MO, cat. D2650), except for the platinum complexes which were prepared in saline (Quality Biological, Gaithersburg, MD, cat. 114-055-101), at 800-fold the tested concentration and stored at -70 degrees C prior to their use. All drugs and investigational agents were tested over a range starting from a high concentration at or near the clinical Cmax and decreasing in half-log increments. If the clinical Cmax for an agent had not been determined, the highest concentration tested was 10 microM.
Cell Culture. All cells were maintained in an incubator at 37 degrees C and 5% CO2 with 95% humidity. The PDC lines were cultured according to standard operating procedures established by the NCI PDMR. Briefly, all PDCs were thawed and cultured in Matrigel-coated flasks prepared with a working solution of 1X Ham's F-12 nutrient mix, without supplementation (Invitrogen, Waltham, MA, cat. 11765054), 100 U/mL penicillin-streptomycin (Invitrogen, cat. 15140122), and 2.5% Matrigel (Corning Inc., Corning, NY, cat. 354248) for the first three passages. The 947758-054-R-J2-PDC line was cultured in 6B/Colon 1A media, which includes advanced DMEM/F-12 (Thermo Fisher Scientific, cat. 12634028), 10 mM HEPES (Thermo Fisher Scientific, cat. 15630080), 1X GlutaMAX supplement (Thermo Fisher Scientific, cat. 35050061), 0.1 mg/mL primocin (InvivoGen, cat. ant-pm-2), 10% defined fetal bovine serum, heat inactivated (HyClone Laboratories Inc., cat. SH30070.03HI), 1.25 mM N-Acetyl-L-cysteine (Sigma-Aldrich, cat. A9165), 10 mM nicotinamide (Sigma-Aldrich, cat. N0636), 1X B-27 supplement (Thermo Fisher Scientific, cat. 17504044), 1X N-2 supplement (Thermo Fisher Scientific, cat. 17502048), and 10 microM Y-27632 dihydrochloride (Tocris Bioscience, cat. 1254). The 876862-298-R-J1-PDC was cultured in 6E media, which includes all 6B/Colon 1A media components plus 50% L-WRN conditioned media (ATCC, cat. CRL-3276), 50 ng/mL recombinant human EGF recombinant protein (hEGF; Thermo Fisher Scientific, cat. PHG0311), 10 ng/mL recombinant human fibroblast growth factor 10 (hGFG-10; PeproTech, cat. 100-26), 1 ng/mL recombinant human fibroblast growth factor 2 (hFGF-2; PeproTech, cat. 100-18B), and 1 µM prostaglandin E2 (PGE2; Tocris, cat. 2296). The 227483-062-R1-J1-PDC line was cultured in Panc media, containing all 6E components except hFGF-2, with the addition of 500 nM SB-431542 (Selleckchem, cat. S1067) and 10 nM gastrin (Tocris, cat. 3006). […]

[1] = second compound 0.0316 µM, first compound 0.0316 µM
[2] = second compound 0.0316 µM, first compound 0.1 µM
[3] = second compound 0.0316 µM, first compound 0.316 µM
[4] = second compound 0.0316 µM, first compound 1 µM
[5] = second compound 0.0316 µM, first compound 3.16 µM
[6] = second compound 0.0316 µM, first compound 10 µM
[7] = second compound 0.1 µM, first compound 0.0316 µM
[8] = second compound 0.1 µM, first compound 0.1 µM
[9] = second compound 0.1 µM, first compound 0.316 µM
[10] = second compound 0.1 µM, first compound 1 µM
[11] = second compound 0.1 µM, first compound 3.16 µM
[12] = second compound 0.1 µM, first compound 10 µM
[13] = second compound 0.316 µM, first compound 0.0316 µM
[14] = second compound 0.316 µM, first compound 0.1 µM
[15] = second compound 0.316 µM, first compound 0.316 µM
[16] = second compound 0.316 µM, first compound 1 µM
[17] = second compound 0.316 µM, first compound 3.16 µM
[18] = second compound 0.316 µM, first compound 10 µM
[19] = second compound 1 µM, first compound 0.0316 µM
[20] = second compound 1 µM, first compound 0.1 µM
[21] = second compound 1 µM, first compound 0.316 µM
[22] = second compound 1 µM, first compound 1 µM
[23] = second compound 1 µM, first compound 3.16 µM
[24] = second compound 1 µM, first compound 10 µM
[25] = second compound 3.16 µM, first compound 0.0316 µM
[26] = second compound 3.16 µM, first compound 0.1 µM
[27] = second compound 3.16 µM, first compound 0.316 µM
[28] = second compound 3.16 µM, first compound 1 µM
[29] = second compound 3.16 µM, first compound 3.16 µM
[30] = second compound 3.16 µM, first compound 10 µM
[31] = second compound 10 µM, first compound 0.0316 µM
[32] = second compound 10 µM, first compound 0.1 µM
[33] = second compound 10 µM, first compound 0.316 µM
[34] = second compound 10 µM, first compound 1 µM
[35] = second compound 10 µM, first compound 3.16 µM
[36] = second compound 10 µM, first compound 10 µM
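Also: spheroids exposed to compounds for one week before readout.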
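For viability, T/C in this document: 100% = DMSO vehicle control wells.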

CC1COCCN1c1cc(C2(S(C)(=N)=O)CC2)nc(-c2ccnc3[nH]ccc23)n1 (centres undefined) + CN1CCN(c2cc(C(=O)Nc3cc4cc(-c5cnn(C)c5)ccc4cn3)ccn2)CC1
pIC50 (second compound 0.0316 µM): 5.09
pIC50 (second compound 0.1 µM): 5.37
pIC50 (second compound 0.316 µM): > 7.50
pIC50 (second compound 1 µM): > 7.50
pIC50 (second compound 3.16 µM): > 7.50
pIC50 (second compound 10 µM): > 7.50
viability, T/C [1]: 129%
viability, T/C [2]: 130%
viability, T/C [3]: 147%
viability, T/C [4]: 208%
viability, T/C [5]: 174%
viability, T/C [6]: 27.1%
viability, T/C [7]: 156%
viability, T/C [8]: 161%
viability, T/C [9]: 134%
viability, T/C [10]: 111%
viability, T/C [11]: 59.6%
viability, T/C [12]: 20.6%
viability, T/C [13]: 4.56%
viability, T/C [14]: 7.68%
viability, T/C [15]: 5.32%
viability, T/C [16]: 4.07%
viability, T/C [17]: 7.49%
viability, T/C [18]: 2.19%
viability, T/C [19]: 0.17%
viability, T/C [20]: 0.18%
viability, T/C [21]: 0.17%
viability, T/C [22]: 2.01%
viability, T/C [23]: 2.61%
viability, T/C [24]: 0.13%
viability, T/C [25]: 0.74%
viability, T/C [26]: 0.2%
viability, T/C [27]: 0.39%
viability, T/C [28]: 1.46%
viability, T/C [29]: 1.04%
viability, T/C [30]: 0.96%
viability, T/C [31]: 1.2%
viability, T/C [32]: 0.28%
viability, T/C [33]: 1.41%
viability, T/C [34]: 1.13%
viability, T/C [35]: 1.09%
viability, T/C [36]: 0.51%

C=CC(=O)N1CCN(c2nc(=O)n(-c3c(C)ccnc3C(C)C)c3nc(-c4c(O)cccc4F)c(F)cc23)C(C)C1 (centres undefined) + CNC(=O)c1ccc(Nc2nc(OC3CCCC3)c3c(-c4ccc5nc(C)oc5c4)c[nH]c3n2)c(OC)c1
pIC50 (second compound 0.0316 µM): < 5.00
pIC50 (second compound 0.1 µM): < 5.00
pIC50 (second compound 0.316 µM): 5.21
pIC50 (second compound 1 µM): > 7.50
pIC50 (second compound 3.16 µM): > 7.50
pIC50 (second compound 10 µM): > 7.50
viability, T/C [1]: 64.6%
viability, T/C [2]: 69.5%
viability, T/C [3]: 68.2%
viability, T/C [4]: 70.9%
viability, T/C [5]: 65.9%
viability, T/C [6]: 51.8%
viability, T/C [7]: 78.4%
viability, T/C [8]: 72.3%
viability, T/C [9]: 66.1%
viability, T/C [10]: 75.5%
viability, T/C [11]: 68%
viability, T/C [12]: 51.3%
viability, T/C [13]: 70.4%
viability, T/C [14]: 68.8%
viability, T/C [15]: 47.1%
viability, T/C [16]: 80.7%
viability, T/C [17]: 77.5%
viability, T/C [18]: 36.7%
viability, T/C [19]: 43.3%
viability, T/C [20]: 45.8%
viability, T/C [21]: 36.9%
viability, T/C [22]: 54.5%
viability, T/C [23]: 45%
viability, T/C [24]: 20%
viability, T/C [25]: 43.1%
viability, T/C [26]: 38.1%
viability, T/C [27]: 40.9%
viability, T/C [28]: 40.9%
viability, T/C [29]: 31.2%
viability, T/C [30]: 16%
viability, T/C [31]: 32.1%
viability, T/C [32]: 28.1%
viability, T/C [33]: 28.6%
viability, T/C [34]: 25.7%
viability, T/C [35]: 21.1%
viability, T/C [36]: 15.1%
